Experiment [1] concerns csTF-1 cells (GM-CSFR/JAK2/STAT5 pathway). Nature of the experiment: csTF-1 cell-based reporter assay. More on the design: species or system human. Conditions: GM-CSF at 2 ng/mL, 4 hours, read-out: Cell Assay: CS0017: CS TF-1 reporter assay: IC50. The essentials:
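GM-CSF-dependent human csTF-1 cells with STAT5-driven beta-lactamase reporter (irf1 element), 2×10^5 cells/well, given serial compound dilutions plus 2 ng/mL GM-CSF in 0.5% DMSO for 4 hours at 30° C. Substrate added 2 h at room temperature; blue (460 nm)/green (530 nm) fluorescence read at 409 nm excitation.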

The next experiment has as its target T1, JAK3 (Homo sapiens, UniProt P52333).
T1 construct: made in house
As to the kind of experiment: Competition binding assay, JAK3. Conditions: read-out: Binding Assay: JAK3 (active_KD, ENZ). The essentials: (§1)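 JAK2 and JAK3 were each tested individually as T7 phage fusions or HEK-293-expressed DNA-tagged kinases, competing with compound for bead-immobilized biotinylated ligand. Eluted kinase was measured by quantitative PCR. Kd values came from eleven serial threefold dilutions.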

Another experiment has as its target T2, JAK2 (Homo sapiens, UniProt O60674).
T2 construct: made in house
Nature of the experiment: Competition binding assay, JAK2. Conditions: read-out: Binding Assay: JAK2 (active_KD). Summed up: as §1

For a further experiment, the target named is T3, AuroraB (Homo sapiens, UniProt Q96GD4).
T3 construct: made in house
Nature of the experiment: Competition binding assay, Aurora B. From the text: Methods for determining binding constant against Aurora B kinase are known to one of skill in the art. Exemplary methods are described in U.S. provisional application No. 61/294,413, and Fabian et al., Nature Biotechnology 2005, 23,329-336.
Competition binding assays used herein were developed, validated and performed as described in Fabian et al., Nature Biotechnology 2005, 23,329-336. Kinases were produced as fusions to T7 phage (See, Fabian et al. or WO04/015142) or alternatively, the kinases were expressed in HEK-293 cells and subsequently tagged with DNA for PCR detection (See, WO08/005310). For the binding assays, streptavidin-coated magnetic beads were treated with biotinylated affinity ligands for 30 min at rt to generate affinity resins. The liganded beads were blocked with excess biotin and washed with blocking buffer (SeaBlock (Pierce), 1% BSA, 0.05% Tween 20, 1 mM DTT) to remove unbound ligand and to reduce non-specific binding. […] Test compounds were prepared as 100× stocks in DMSO and rapidly diluted into the aqueous environment. DMSO was added to control assays lacking a test compound. Primary screen interactions were performed in polypropylene 384-well plates in a final volume of 34 μL, while Kd determinations were performed in polystyrene 96-well plates in a final volume of 135 μL. […] The kinase concentration in the eluates was measured by quantitative PCR. Each kinase was tested individually against each compound. Kds were determined using eleven serial threefold dilutions. A selectivity score, which is a quantitative measure of selectivity of a compound against a panel of enzymes, may be calculated for a compound by dividing the number of enzymes for which a compound meets a set criteria, (for example, a binding constant of 100 nM or less), by the total number of enzymes tested.

The test system of another experiment is HEL 92.1.7 cells. As to the kind of experiment: In vivo efficacy study in the mouse HELV617F liquid tumor model (survival). The settings on record: CB17 SCID mice, PO BID, 21 day dosing; Ambit Internal Compound 50 or 60 mg/kg, compound of Formula I 60 mg/kg, TGEN101348 120 mg/kg. Here is the method: In Vivo Efficacy Study in the Mouse HELV617F Liquid Tumor Mouse Model
This study was conducted to determine the effect of a selected compound of Formula I on tumor progression and survival. CB 17 SCID mice (Charles River Labs) were pretreated with cyclophosphamide IP QD at 150 mg/kg for two consecutive days before being injected with cells. On Day 0, 75 mice were inoculated IV with 5e6 HEL 92.1.7 cells suspended in sterile saline. Animals were weighed on Day 8, and assigned to groups with similar mean body weights and similar standard deviations from the mean. Animals were dosed on Day 8 for a 21 day dosing period. Treatment groups were as follows (10 animals per group): First group was administered vehicle (Pharmatek #6), PO, BID; a second group was administered Ambit Internal Compound A prepared in Pharmatek #6, at 50 mg/kg PO, BID; and a third group was administered TGEN101348 prepared in Pharmatek #6, at 120 mg/kg PO, BID. An untreated group of 10 animals also served as control.
Another study was conducted using the same protocol, with the same controls and the following treatment groups: Ambit Internal Compound A prepared in Pharmatek #6 administered at 60 mg/kg BID and a selected compound of Formula I prepared in Pharmatek #6 at 60 mg/kg BID.

Another experiment has as its system TEL-JAK cells. As to the kind of experiment: In vivo efficacy study in the mouse TELJAK model (survival). The settings on record: CB17 SCID mice, BID for two weeks; Ambit Internal Compound 50 mg/kg BID, TGEN101348 100 mg/kg BID. Here is the method: In Vivo Efficacy Study in the Mouse TELJAK Mouse Model
This study was conducted to determine the effect of a selected compound of Formula I on tumor progression and survival. CB17 SCID mice (Harlan Laboratories) were inoculated with 5e5 TEL-JAK cells via tail vein on day 0. Cells were allowed to establish in the animal, and on day 3, dosing was initiated as follows: Vehicle (Pharmatek #6) administered 50 uL at BID to a first group, Ambit Internal Compound prepared in Pharmatek #6 and administered at 50 mg/kg BID to a second group and TGEN101348 prepared in Pharmatek #6 to a third group at 100 mg/kg BID. Each treatment group (16 animals per group) received a twice daily dosing for a two week period. An untreated group of 10 animals also served as control.
A second study was conducted using the same protocol, with the same controls and the following treatment groups: Ambit Internal Compound A prepared in Pharmatek #6 administered at 60 mg/kg BID and a selected compound of Formula I prepared in Pharmatek #6 at 60 mg/kg BID.

Where two headings read alike, the source gives them in different places. Bounds are passed on as bounds.

The IC50 is the concentration needed to halve the response being measured.

T1 sequence (P52333 822-1111 limits assumed): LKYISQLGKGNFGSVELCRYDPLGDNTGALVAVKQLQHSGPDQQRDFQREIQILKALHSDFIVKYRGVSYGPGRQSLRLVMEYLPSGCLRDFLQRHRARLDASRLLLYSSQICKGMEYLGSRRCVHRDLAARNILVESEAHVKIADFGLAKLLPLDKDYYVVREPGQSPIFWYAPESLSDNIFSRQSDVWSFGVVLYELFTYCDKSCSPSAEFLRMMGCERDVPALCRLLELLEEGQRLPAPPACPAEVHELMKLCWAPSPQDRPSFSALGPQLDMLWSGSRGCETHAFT
T3 sequence (Q96GD4 whole entry): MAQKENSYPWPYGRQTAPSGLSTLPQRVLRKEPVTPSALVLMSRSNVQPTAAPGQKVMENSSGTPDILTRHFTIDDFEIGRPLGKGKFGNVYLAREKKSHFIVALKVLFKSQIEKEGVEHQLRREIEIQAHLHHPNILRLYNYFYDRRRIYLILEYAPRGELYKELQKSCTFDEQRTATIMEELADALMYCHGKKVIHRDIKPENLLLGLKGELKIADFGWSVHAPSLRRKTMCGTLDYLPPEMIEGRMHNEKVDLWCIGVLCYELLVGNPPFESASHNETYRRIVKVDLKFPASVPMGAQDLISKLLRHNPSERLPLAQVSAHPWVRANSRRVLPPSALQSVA
T2 sequence (O60674 849-1124 limits assumed): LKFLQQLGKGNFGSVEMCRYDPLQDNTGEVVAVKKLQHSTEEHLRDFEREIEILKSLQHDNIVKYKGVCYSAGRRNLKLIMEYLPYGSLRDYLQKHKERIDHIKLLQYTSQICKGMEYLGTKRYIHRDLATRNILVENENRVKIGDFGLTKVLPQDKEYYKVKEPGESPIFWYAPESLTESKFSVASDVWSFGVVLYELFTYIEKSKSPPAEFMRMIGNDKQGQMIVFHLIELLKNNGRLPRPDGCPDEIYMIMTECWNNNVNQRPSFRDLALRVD

For the molecule `Cc1ccc2c(Nc3cc(C)[nH]n3)nc(C(=O)c3ccc(F)cc3)nc2c1` [Example 24, (4-fluorophenyl)(7-methyl-4-(5-methyl-1H-pyrazol-3-ylamino)quinazolin-2-yl)methanone], the IC50 in experiment [1] (Homo sapiens) is at most 100 nM. Also, the Kd is 10 to 100 nM at JAK3, at most 1 nM at JAK2 and above 200 nM at AuroraB.
The corresponding values for `Cc1ccc2c(Nc3cc(C)[nH]n3)nc(C(F)(F)c3ccc(F)cc3)nc2c1` [Example 26, 2-(difluoro(4-fluorophenyl)methyl)-7-methyl-N-(5-methyl-1H-pyrazol-3-yl)quinazolin-4-amine] are at most 100 nM, at most 10 nM, at most 1 nM and above 200 nM.
The corresponding values for `COc1ccc2c(Nc3cc[nH]n3)nc(C(=O)c3ccc(F)cc3)nc2c1` [Example 28, (4-(1H-pyrazol-3-ylamino)-7-methoxyquinazolin-2-yl)(4-fluorophenyl)methanone] are 100 to 500 nM, above 100 nM, 1 to 10 nM and above 200 nM.
Taken in the same sequence, the figures for `COc1ccc2c(Nc3cc(C)[nH]n3)nc(C(=O)c3ccc(F)cc3)nc2c1` [Example 30, (4-fluorophenyl)(7-methoxy-4-(5-methyl-1H-pyrazol-3-ylamino)quinazolin-2-yl)methanone] were at most 100 nM, 10 to 100 nM, 1 to 10 nM and above 200 nM.
Consider `COc1ccc2c(Nc3cc(C)[nH]n3)nc(C(F)(F)c3ccc(F)cc3)nc2c1` [Example 32, 2-(difluoro(4-fluorophenyl)methyl)-7-methoxy-N-(5-methyl-1H-pyrazol-3-yl)quinazolin-4-amine], for which the concentration for half-maximal inhibition (IC50) in experiment [1] (Homo sapiens) is at most 100 nM. For the same molecule, the Kd on JAK3 is 10 to 100 nM; at JAK2, at most 1 nM; on AuroraB, above 200 nM.
Consider `COc1ccc2c(Nc3cc[nH]n3)nc(C(F)(F)c3ccc(F)cc3)nc2c1` [Example 33, 2-(difluoro(4-fluorophenyl)methyl)-7-methoxy-N-(1H-pyrazol-3-yl)quinazolin-4-amine], for which the IC50 in experiment [1] (Homo sapiens) fell in the range of 100 to 500 nM. The figures for the Kd on JAK3, at JAK2 and on AuroraB were above 100 nM, 1 to 10 nM and 50 to 200 nM, respectively.
The corresponding values for `Cc1cc(Nc2nc(C(F)(F)c3ccc(F)cc3)nc3c(F)cccc23)n[nH]1` [Example 34, 2-(difluoro(4-fluorophenyl)methyl)-8-fluoro-N-(5-methyl-1H-pyrazol-3-yl)quinazolin-4-amine] are at most 100 nM, 10 to 100 nM, at most 1 nM and above 200 nM.
The corresponding values for `COc1cccc2c(Nc3cc[nH]n3)nc(C(=O)c3ccc(F)cc3)nc12` [Example 35, (4-(1H-pyrazol-3-ylamino)-8-methoxyquinazolin-2-yl)(4-fluorophenyl)methanone] are above 500 nM, above 100 nM, above 10 nM and 50 to 200 nM.
The corresponding values for `Cc1cc(Nc2nc(C(=O)c3ccc(F)cc3)nc3cc(O)ccc23)n[nH]1` [Example 37, (4-fluorophenyl)(7-hydroxy-4-(5-methyl-1H-pyrazol-3-ylamino)quinazolin-2-yl)methanone] are at most 100 nM, 10 to 100 nM, at most 1 nM and above 200 nM.
With `Cc1cc(Nc2nc(C(O)c3ccc(F)cc3)nc3cc(OC4CCNCC4)ccc23)n[nH]1` (stereo not shown) [Example 41, (4-fluorophenyl)(4-(5-methyl-1H-pyrazol-3-ylamino)-7-(piperidin-4-yloxy)quinazolin-2-yl)methanol], in experiment [1] (Homo sapiens), the half-maximal inhibitory concentration (IC50) was 100 to 500 nM. Besides, the values for the Kd on JAK3, on JAK2 and on AuroraB were at most 10 nM, at most 1 nM and above 200 nM, respectively.
Taken in the same sequence, the figures for `Cc1cc(Nc2nc(C(F)(F)c3ccc(F)cc3)nc3cc(CS(C)(=O)=O)ccc23)n[nH]1` [Example 50, 2-(difluoro(4-fluorophenyl)methyl)-N-(5-methyl-1H-pyrazol-3-yl)-7-(methylsulfonylmethyl)quinazolin-4-amine] were at most 100 nM, at most 10 nM, at most 1 nM and above 200 nM.
Taken in the same sequence, the figures for `CCOCc1ccc2c(Nc3cc(C)[nH]n3)nc(C(F)(F)c3ccc(F)cc3)nc2c1` [Example 51, 2-(Difluoro(4-fluorophenyl)methyl)-7-(ethoxymethyl)-N-(5-methyl-1H-pyrazol-3-yl)quinazolin-4-amine] were at most 100 nM, at most 10 nM, at most 1 nM and 50 to 200 nM.
Take `Cc1cnc(Nc2ccc(OCCN3CCCC3)cc2)nc1Nc1cccc(S(=O)(=O)NC(C)(C)C)c1` [TGEN101348]: the results for the “increased life span (ILS)” value with HEL 92.1.7 cells and in the experiment on TEL-JAK cells were “approximately 5%” and 30%, respectively.
Consider `Cc1cc(Nc2nc(C(O)(c3ccc(F)cc3)c3ccc(F)cc3)nc3ccccc23)n[nH]1` [bis-(4-fluoro-phenyl)-[4-(5-methyl-1H-pyrazol-3-ylamino)-quinazolin-2-yl]-methanol], for which the IC50 in experiment [1] (Homo sapiens) is above 500 nM. Moreover, the Kd on JAK3 was above 100 nM; on JAK2, above 10 nM; on AuroraB, above 200 nM.
Take “(4-(1H-pyrazol-3-ylamino)quinazolin-2-yl)bis(4-fluorophenyl)methanol [Example 48]”: the IC50 in experiment [1] is above 500 nM. In addition, the Kd on JAK3 is above 100 nM; on JAK2 it was above 10 nM; at AuroraB, above 200 nM.

Source of the values: US8349851B2, “JAK kinase modulating compounds and methods of use thereof” (Ambit Biosciences Corp., priority 2009, dated 2013).
